Measured values: ChEMBL document CHEMBL1909046, “DrugMatrix in vitro pharmacology data”
pIC50, pKi: −log10 of the molar value.

How the values were obtained:
[1] = target: Voltage-gated inwardly rectifying potassium channel KCNH2 (Homo sapiens, UniProt Q12809); conditions: hek293; further: in other assays of this panel Not Active means under 50% inhibition at 10 µM
[2] = DRUGMATRIX: Potassium Channel [KATP] radioligand binding (ligand: [3H] Glyburide); type: cell membranes, Membrane; conditions: hit-t15; Not Active = under 50% inhibition at 10 µM
[3] = DRUGMATRIX: GABAA, Muscimol, Central radioligand binding (ligand: [3H] Muscimol); type: cell membranes, Rattus norvegicus, Wistar, Brain, Membrane; conditions: Not Active = under 50% inhibition at 10 µM
Mu-type opioid receptor = Mu-type opioid receptor (Homo sapiens, UniProt P35372); test: DRUGMATRIX: Opiate mu (OP3, MOP) radioligand binding (ligand: [3H] Diprenorphine); type: cell membranes, CHO-K1, Membrane; conditions: cho-k1; Not Active = under 50% inhibition at 10 µM
Chain of Mu-type opioid receptor (P35372 whole entry): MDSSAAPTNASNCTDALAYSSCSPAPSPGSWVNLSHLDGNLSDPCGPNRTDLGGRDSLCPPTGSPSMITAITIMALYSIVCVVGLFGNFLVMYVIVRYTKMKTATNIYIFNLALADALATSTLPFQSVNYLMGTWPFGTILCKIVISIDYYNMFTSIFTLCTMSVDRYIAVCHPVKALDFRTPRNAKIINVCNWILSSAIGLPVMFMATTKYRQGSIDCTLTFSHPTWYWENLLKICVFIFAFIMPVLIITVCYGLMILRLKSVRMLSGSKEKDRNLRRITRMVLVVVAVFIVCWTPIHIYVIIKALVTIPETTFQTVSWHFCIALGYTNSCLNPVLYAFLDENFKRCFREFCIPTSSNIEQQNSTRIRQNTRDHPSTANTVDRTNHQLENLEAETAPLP

[4] = DRUGMATRIX: Calcium Channel Type L, Phenylalkylamine radioligand binding (ligand: [3H] (-)-Desmethoxyverapamil (D-888)); type: cell membranes, Rattus norvegicus, Wistar, Brain, Membrane; conditions: Not Active = under 50% inhibition at 10 µM; for pIC50: read-out: IC50; for pKi: read-out: Ki
Cytochrome P450 2A6 = target: T1, Cytochrome P450 2A6 (Homo sapiens, UniProt P11509); conditions: bti-tn-5b1-4; further: in other assays of this panel Not Active means under 50% inhibition at 10 µM
T1 sequence (P11509 whole entry): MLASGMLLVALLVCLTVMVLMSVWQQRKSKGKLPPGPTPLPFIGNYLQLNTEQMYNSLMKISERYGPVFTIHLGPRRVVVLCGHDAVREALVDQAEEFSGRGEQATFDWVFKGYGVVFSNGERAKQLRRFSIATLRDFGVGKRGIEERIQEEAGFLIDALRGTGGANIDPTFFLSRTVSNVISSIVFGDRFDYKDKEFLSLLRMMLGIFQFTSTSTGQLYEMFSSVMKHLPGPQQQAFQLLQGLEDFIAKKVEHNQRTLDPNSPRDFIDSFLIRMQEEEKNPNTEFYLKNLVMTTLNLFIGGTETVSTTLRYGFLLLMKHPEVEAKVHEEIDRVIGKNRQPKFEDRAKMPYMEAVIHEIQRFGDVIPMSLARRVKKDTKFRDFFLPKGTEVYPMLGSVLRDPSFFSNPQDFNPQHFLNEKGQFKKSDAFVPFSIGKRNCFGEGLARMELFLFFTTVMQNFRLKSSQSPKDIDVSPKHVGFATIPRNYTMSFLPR

Cytochrome P450 2D6 = Cytochrome P450 2D6 (Homo sapiens, UniProt P10635); conditions: bti-tn-5b1-4; further: in other assays of this panel Not Active means under 50% inhibition at 10 µM
Chain of Cytochrome P450 2D6 (P10635 whole entry): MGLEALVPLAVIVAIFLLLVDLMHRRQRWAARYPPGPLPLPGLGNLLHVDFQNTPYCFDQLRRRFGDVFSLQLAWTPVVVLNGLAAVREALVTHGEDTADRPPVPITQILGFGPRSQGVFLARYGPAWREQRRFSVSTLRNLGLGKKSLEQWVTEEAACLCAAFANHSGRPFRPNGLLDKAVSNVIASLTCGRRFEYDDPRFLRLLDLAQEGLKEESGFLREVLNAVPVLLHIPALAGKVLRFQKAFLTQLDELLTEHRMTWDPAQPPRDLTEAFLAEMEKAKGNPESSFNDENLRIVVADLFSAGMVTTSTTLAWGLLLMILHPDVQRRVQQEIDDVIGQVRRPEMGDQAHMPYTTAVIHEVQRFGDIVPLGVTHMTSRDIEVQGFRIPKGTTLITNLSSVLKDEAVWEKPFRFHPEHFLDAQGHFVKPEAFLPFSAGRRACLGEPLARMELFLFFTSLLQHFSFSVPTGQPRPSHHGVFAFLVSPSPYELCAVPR

Chain of Voltage-gated inwardly rectifying potassium channel KCNH2 (Q12809 whole entry): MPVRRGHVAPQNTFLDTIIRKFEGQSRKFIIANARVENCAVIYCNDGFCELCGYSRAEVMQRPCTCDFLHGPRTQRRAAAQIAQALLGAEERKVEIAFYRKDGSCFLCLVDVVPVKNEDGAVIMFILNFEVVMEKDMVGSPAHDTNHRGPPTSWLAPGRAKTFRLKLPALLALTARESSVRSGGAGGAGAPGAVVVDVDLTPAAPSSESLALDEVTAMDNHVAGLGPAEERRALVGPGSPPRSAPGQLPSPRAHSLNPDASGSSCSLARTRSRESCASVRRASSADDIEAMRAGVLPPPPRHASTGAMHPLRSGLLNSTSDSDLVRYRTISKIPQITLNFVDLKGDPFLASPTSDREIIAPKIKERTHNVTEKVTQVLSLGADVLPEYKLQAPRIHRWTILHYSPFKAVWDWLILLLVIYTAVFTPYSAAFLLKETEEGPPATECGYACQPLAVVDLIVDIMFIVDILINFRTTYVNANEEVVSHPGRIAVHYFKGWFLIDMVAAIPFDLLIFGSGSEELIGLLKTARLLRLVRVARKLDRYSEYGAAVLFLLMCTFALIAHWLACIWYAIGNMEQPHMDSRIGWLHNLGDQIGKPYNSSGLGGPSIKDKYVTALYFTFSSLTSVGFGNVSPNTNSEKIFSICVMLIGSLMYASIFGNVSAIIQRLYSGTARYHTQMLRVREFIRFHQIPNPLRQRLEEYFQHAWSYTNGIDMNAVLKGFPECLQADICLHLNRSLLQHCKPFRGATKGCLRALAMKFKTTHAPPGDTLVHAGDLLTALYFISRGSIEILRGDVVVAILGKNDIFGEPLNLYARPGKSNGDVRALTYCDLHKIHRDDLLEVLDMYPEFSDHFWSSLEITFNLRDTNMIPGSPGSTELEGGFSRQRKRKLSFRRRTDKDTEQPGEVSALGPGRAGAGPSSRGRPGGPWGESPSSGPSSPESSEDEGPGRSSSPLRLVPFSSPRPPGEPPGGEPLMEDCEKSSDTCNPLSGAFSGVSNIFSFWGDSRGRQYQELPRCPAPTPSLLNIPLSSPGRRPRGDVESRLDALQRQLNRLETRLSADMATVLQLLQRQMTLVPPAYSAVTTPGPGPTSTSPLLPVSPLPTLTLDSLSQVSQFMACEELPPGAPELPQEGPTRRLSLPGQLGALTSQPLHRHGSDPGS

| Molecule | IC50 [1] | Ki [1] | IC50 [2] | Ki [2] | IC50 [3] | Ki [3] | IC50 (Mu-type opioid receptor) | IC50 [4] | Ki [4] | IC50 (Cytochrome P450 2A6) | Ki (Cytochrome P450 2A6) | IC50 (Cytochrome P450 2D6) | Ki (Cytochrome P450 2D6) | pIC50 [4] | pKi [4] |
| --- | --- | --- | --- | --- | --- | --- | --- | --- | --- | --- | --- | --- | --- | --- | --- |
| CCOc1nc2cccc(C(=O)O)c2n1Cc1ccc(-c2ccccc2-c2nnn[nH]2)cc1 | Not Active | Not Active | Not Active | Not Active | Not Active | Not Active | Not Active | Not Active | Not Active | Not Active | Not Active |  |  |  |  |
| O=C(c1ccccc1F)N1CCC(Cc2ccccc2)CC1 | Not Active | Not Active | Not Active | Not Active | Not Active | Not Active | Not Active | Not Active | Not Active | Not Active | Not Active | Not Active | Not Active |  |  |
| CC[C@H]1[C@@H]2C[C@H]3[C@@H]4N(C)c5ccccc5[C@]45C[C@@H]([C@@H]2[C@H]5O)N3[C@@H]1O [AJMALINE] | Not Active | Not Active | Not Active | Not Active | Not Active | Not Active | Not Active | Not Active | Not Active | Not Active | Not Active |  |  |  |  |
| NC12CC3CC(CC(C3)C1)C2 [AMANTADINE] | Not Active | Not Active | Not Active | Not Active | Not Active | Not Active | Not Active | Not Active | Not Active |  |  |  |  |  |  |
| CN(C)CCC=C1c2ccccc2CCc2ccccc21 [AMITRIPTYLINE] |  |  | Not Active | Not Active | Not Active | Not Active | Not Active |  |  | Not Active | Not Active | Not Active | Not Active | 6.08 | 6.09 |
| CC(C)c1c(C(=O)Nc2ccccc2)c(-c2ccccc2)c(-c2ccc(F)cc2)n1CC[C@@H](O)C[C@@H](O)CC(=O)O [ATORVASTATIN] |  |  | Not Active | Not Active | Not Active | Not Active | Not Active | Not Active | Not Active | Not Active | Not Active |  |  |  |  |
| CN1CCN(C(c2ccccc2)c2ccccc2)CC1 [CYCLIZINE] | Not Active | Not Active | Not Active | Not Active | Not Active | Not Active | Not Active |  |  | Not Active | Not Active |  |  | 5.33 | 5.35 |
| C#C[C@]1(O)CC[C@H]2[C@@H]3CCC4=CC(=O)CC[C@]4(C)[C@H]3CC[C@@]21C [ETHISTERONE] |  |  | Not Active | Not Active | Not Active | Not Active | Not Active | Not Active | Not Active | Not Active | Not Active | Not Active | Not Active |  |  |
| CC(C)(C(=O)O)c1ccc(C(O)CCCN2CCC(C(O)(c3ccccc3)c3ccccc3)CC2)cc1 (configuration not stated) [FEXOFENADINE] |  |  | Not Active | Not Active | Not Active | Not Active | Not Active | Not Active | Not Active | Not Active | Not Active |  |  |  |  |
| CC(=O)OCC(=O)[C@@]12OC(C)(C)O[C@@H]1C[C@H]1[C@@H]3C[C@H](F)C4=CC(=O)C=C[C@]4(C)[C@@]3(F)[C@@H](O)C[C@@]12C [FLUOCINONIDE] | Not Active | Not Active | Not Active | Not Active | Not Active | Not Active | Not Active | Not Active | Not Active |  |  |  |  |  |  |
| N[C@@H](Cn1ccc(=O)c(O)c1)C(=O)O [L-MIMOSINE] | Not Active | Not Active | Not Active | Not Active | Not Active | Not Active | Not Active | Not Active | Not Active |  |  |  |  |  |  |
| CCn1cc(C(=O)O)c(=O)c2cc(F)c(N3CCNC(C)C3)c(F)c21 (configuration not stated) [LOMEFLOXACIN] |  |  |  |  | Not Active | Not Active | Not Active | Not Active | Not Active | Not Active | Not Active | Not Active | Not Active |  |  |
| C[C@]12CC[C@H]3[C@@H](CCC4=CC(=O)CC[C@@H]43)[C@@H]1CC[C@@H]2O [NANDROLONE] | Not Active | Not Active | Not Active | Not Active | Not Active | Not Active |  | Not Active | Not Active | Not Active | Not Active | Not Active | Not Active |  |  |
| C[C@@H]1C/C=C/C=C/C=C/C=C/[C@H](O[C@@H]2O[C@H](C)[C@@H](O)[C@H](N)[C@@H]2O)C[C@@H]2O[C@](O)(C[C@@H](O)C[C@H]3O[C@@H]3/C=C/C(=O)O1)C[C@H](O)[C@H]2C(=O)O [NATAMYCIN] | Not Active | Not Active | Not Active | Not Active | Not Active | Not Active | Not Active | Not Active | Not Active |  |  |  |  |  |  |
| C[C@@H]1O[C@@H](O[C@H]2C[C@@H](O)[C@]3(CO)[C@H]4[C@H](O)C[C@]5(C)[C@@H](C6=CC(=O)OC6)CC[C@]5(O)[C@@H]4CC[C@]3(O)C2)[C@H](O)[C@H](O)[C@H]1O [OUABAIN] | Not Active | Not Active | Not Active | Not Active | Not Active | Not Active |  | Not Active | Not Active | Not Active | Not Active | Not Active | Not Active |  |  |
| N=C(N)c1ccc(OCCCCCOc2ccc(C(=N)N)cc2)cc1 [PENTAMIDINE] |  |  | Not Active | Not Active | Not Active | Not Active | Not Active |  |  | Not Active | Not Active | Not Active | Not Active | 5.86 | 5.87 |
| NNCCc1ccccc1 [PHENELZINE] | Not Active | Not Active | Not Active | Not Active | Not Active | Not Active | Not Active | Not Active | Not Active | Not Active | Not Active |  |  |  |  |
| CC[C@]1(O)C[C@@H]2CN(CCc3c([nH]c4ccccc34)[C@@](C(=O)OC)(c3cc4c(cc3OC)N(C)[C@H]3[C@@](O)(C(N)=O)[C@H](O)[C@]5(CC)C=CCN6CC[C@]43[C@@H]65)C2)C1 [VINDESINE] | Not Active | Not Active | Not Active | Not Active | Not Active | Not Active | Not Active | Not Active | Not Active | Not Active | Not Active |  |  |  |  |
| COBALTOUS CHLORIDE | Not Active | Not Active | Not Active | Not Active | Not Active | Not Active |  | Not Active | Not Active | Not Active | Not Active | Not Active | Not Active |  |  |
| COLISTIN | Not Active | Not Active | Not Active | Not Active | Not Active | Not Active |  | Not Active | Not Active | Not Active | Not Active | Not Active | Not Active |  |  |
